The results in this text go back to PubChem BioAssay (NCI).

Among the test systems are HCC-2998 colon; HCT-116 colon; HS 578T breast; LOX IMVI melanoma; MCF7 breast; MDA-MB-231 breast; NCI-H23 lung; RPMI-8226 leukemia; SNB-75 CNS; UACC-257 melanoma.
Assay in all cases: growth of human tumour cells (NCI), 48 h

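Five compound concentrations were applied to cells in 96-well plates for 48 hours; endpoints were derived by simple linear interpolation of the resulting dose-response curve. At the GI50, growth is halved. At the TGI there is no net growth.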 A value given as a limit tells only on which side of the number the result lay.

As to `C=C1C(=O)O[C@@H]2C[C@@H]1CC/C(C)=C/CC/C(C)=C/CC[C@@]2(C)O`, the GI50 is 14 µM in the experiment with HCC-2998 colon; 3.06 µM in the experiment on HCT-116 colon; 28.5 µM with HS 578T breast; 5.49 µM in the experiment on LOX IMVI melanoma; 11.9 µM with MCF7 breast; 8.56 µM in the experiment on MDA-MB-231 breast. Moreover, the GI50 in the experiment with NCI-H23 lung was 4.14 µM; with RPMI-8226 leukemia, 2.09 µM; in the experiment with SNB-75 CNS it was 26.4 µM; in the experiment with UACC-257 melanoma, 17.5 µM. Further, the TGI in the experiment with HCC-2998 colon is 28.7 µM; in the experiment on HCT-116 colon, 11.9 µM; in the experiment with HS 578T breast it was 72.4 µM; with LOX IMVI melanoma, > 100 µM; in the experiment on MCF7 breast it was 36.2 µM; in the experiment with MDA-MB-231 breast, 31.8 µM. Besides, the TGI in the experiment on NCI-H23 lung is 16.2 µM; in the experiment on RPMI-8226 leukemia it was 5.09 µM; with SNB-75 CNS, 47.4 µM; in the experiment with UACC-257 melanoma, 41.9 µM.
Turning to `N#CC(=C1C=CC(=NO)C=C1)c1ccccc1`, the GI50 was 4.61 µM in the experiment on HCC-2998 colon; 0.272 µM with HCT-116 colon; 2.39 µM in the experiment with HS 578T breast; 1.17 µM in the experiment on LOX IMVI melanoma; 0.319 µM with MCF7 breast; 1.73 µM in the experiment on MDA-MB-231 breast. Further, the GI50 with NCI-H23 lung was 9.92 µM; in the experiment with RPMI-8226 leukemia it was 0.348 µM; in the experiment with SNB-75 CNS, 2.14 µM; in the experiment on UACC-257 melanoma, 2.12 µM. The TGI came out at 15 µM in the experiment with HCC-2998 colon; 0.794 µM in the experiment on HCT-116 colon; 6.68 µM with HS 578T breast; 6.25 µM with LOX IMVI melanoma; 11.6 µM in the experiment with MCF7 breast; 5.17 µM in the experiment with MDA-MB-231 breast. Further, the TGI turned out to be 34.1 µM in the experiment with NCI-H23 lung, 1.83 µM in the experiment with RPMI-8226 leukemia, 8.99 µM in the experiment with SNB-75 CNS and 17.8 µM in the experiment on UACC-257 melanoma.
`CCN(CC)c1ccc2c(c1)OC(N)=C(C#N)C2c1cc(OC)c2c(c1)OCO2` (stereo not given): the GI50 in the experiment on HCC-2998 colon is 0.0302 µM; in the experiment with HCT-116 colon, 0.0324 µM; with HS 578T breast, 0.0167 µM; in the experiment on LOX IMVI melanoma, 0.0577 µM; with MCF7 breast, 0.0294 µM; in the experiment on MDA-MB-231 breast, 0.0557 µM. Further, the GI50 was 0.0359 µM in the experiment with NCI-H23 lung, 0.0474 µM in the experiment on RPMI-8226 leukemia, 0.02 µM in the experiment on SNB-75 CNS and 0.312 µM in the experiment on UACC-257 melanoma. The TGI with HCC-2998 colon worked out at 1.35 µM; in the experiment on HCT-116 colon, 1.78 µM; with HS 578T breast, 0.409 µM; in the experiment on LOX IMVI melanoma, 3.86 µM; with MCF7 breast, 11.5 µM; in the experiment with MDA-MB-231 breast it was 2.73 µM. For the same molecule, the TGI worked out at 14.5 µM in the experiment with NCI-H23 lung, 2.51 µM with RPMI-8226 leukemia, 42.5 µM with SNB-75 CNS and 14.5 µM in the experiment on UACC-257 melanoma.
`Cc1cc(I)cc(CN(C)CCCN2CCCCCCC2)c1O`: the GI50 with HCC-2998 colon was 18.1 µM; in the experiment on HCT-116 colon, 11.8 µM; in the experiment on HS 578T breast, 15.7 µM; in the experiment on LOX IMVI melanoma, 16.2 µM; in the experiment on MCF7 breast it was 14.2 µM; in the experiment with MDA-MB-231 breast, 14.9 µM. Moreover, the GI50 in the experiment on NCI-H23 lung is 18.1 µM; in the experiment on RPMI-8226 leukemia, 7.9 µM; in the experiment on SNB-75 CNS, 15.4 µM; in the experiment with UACC-257 melanoma, 16.2 µM. Further, the TGI with HCC-2998 colon was found to be 36.8 µM; in the experiment on HCT-116 colon, 28.3 µM; in the experiment with HS 578T breast it was 33.7 µM; in the experiment on LOX IMVI melanoma, 30.9 µM; in the experiment on MCF7 breast, 30.6 µM; in the experiment on MDA-MB-231 breast, 29.6 µM. The TGI is 48.7 µM in the experiment on NCI-H23 lung, 24.2 µM in the experiment on RPMI-8226 leukemia, 30.2 µM in the experiment with SNB-75 CNS and 34.3 µM in the experiment on UACC-257 melanoma.
Take `CC(CCC=O)CCOCc1ccccc1` (stereo not given): the TGI was > 100 µM with HCC-2998 colon; > 100 µM in the experiment on HCT-116 colon; > 100 µM in the experiment on HS 578T breast; > 91.2 µM in the experiment on LOX IMVI melanoma; 22.7 µM in the experiment with MCF7 breast; > 100 µM with MDA-MB-231 breast. Moreover, the TGI with NCI-H23 lung, in the experiment with RPMI-8226 leukemia, in the experiment on SNB-75 CNS and in the experiment with UACC-257 melanoma was > 100 µM each time.
Consider `O=C(Cc1ccc(/C=C/C(=O)c2ncc[nH]2)cc1)Nc1cc(F)c(F)c(F)c1`, for which the GI50 in the experiment with HCC-2998 colon was 3.57 µM; in the experiment on HCT-116 colon it was 2.04 µM; in the experiment with HS 578T breast, 7.3 µM; in the experiment on LOX IMVI melanoma it was 1.56 µM; in the experiment with MCF7 breast it was 2.38 µM; in the experiment with MDA-MB-231 breast, 6.45 µM. Further, the GI50 in the experiment with NCI-H23 lung was 3.82 µM; in the experiment with RPMI-8226 leukemia, 0.665 µM; with SNB-75 CNS, 1.98 µM; in the experiment with UACC-257 melanoma, 4.49 µM. The TGI is 7.03 µM with HCC-2998 colon; 5.38 µM in the experiment on HCT-116 colon; > 25 µM with HS 578T breast; 4.81 µM in the experiment with LOX IMVI melanoma; 7.76 µM in the experiment with MCF7 breast; 21.1 µM in the experiment with MDA-MB-231 breast. For the same molecule, the TGI in the experiment on NCI-H23 lung was 9.11 µM; in the experiment on RPMI-8226 leukemia it was 1.79 µM; in the experiment with SNB-75 CNS it was > 25 µM; in the experiment on UACC-257 melanoma, 11.9 µM.
For `Clc1nc2ccccc2nc1CI`, the GI50 in the experiment with HCC-2998 colon is 19.1 µM; with HCT-116 colon, 1.95 µM; in the experiment on HS 578T breast, 12.7 µM; in the experiment with LOX IMVI melanoma, 1.03 µM; with MCF7 breast it was 2.79 µM; in the experiment on MDA-MB-231 breast, 3.14 µM. The GI50 is 6.38 µM in the experiment with NCI-H23 lung, 4.33 µM in the experiment on RPMI-8226 leukemia, 9.39 µM in the experiment on SNB-75 CNS and 12.9 µM with UACC-257 melanoma. Moreover, the TGI in the experiment with HCC-2998 colon is 35.9 µM; in the experiment with HCT-116 colon it was 3.95 µM; with HS 578T breast it was 77.6 µM; in the experiment with LOX IMVI melanoma, 3.34 µM; in the experiment with MCF7 breast it was 11.9 µM; in the experiment with MDA-MB-231 breast, 9.08 µM. In addition, the TGI in the experiment with NCI-H23 lung was 25.3 µM; in the experiment on RPMI-8226 leukemia it was 21.9 µM; with SNB-75 CNS, 30.1 µM; in the experiment with UACC-257 melanoma, 26.2 µM.
